Experimental data published in US7803831B2, “3-(2-hydroxy-phenyl)-1H-pyrazole-4-carboxylic acid amide derivatives as HSP90 inhibitors for the treatment of cancer” (Vernalis (Cambridge) Limited, priority 2002, dated 2010).
pIC50: −log10 of the molar value.

biological target: T1, yeast HSP90 (Saccharomyces cerevisiae, UniProt P02829); assay: Malachite green ATPase assay; type: biochemical; details: activity range
T1 construct: made in house; host or cells: E. coli
Excerpt: The intrinsic ATPase activity of HSP90 may be measured using yeast HSP90 as a model system. The assay, based on the use of malachite green for the measurement of inorganic phosphate, was used to test the HSP90 inhibitory activity of the compounds of the Examples herein.
Malachite Green ATPase Assay
Chemicals are of the highest purity commercially available and all aqueous solutions are made up in AR water. Because of the need to minimise contamination with inorganic phosphate, precautions should be taken with solutions and apparatus used in the assays. Glassware and pH meters are rinsed with double distilled or deionised water before use and, wherever possible, plastic ware should be used. Gloves are worn for all procedures. • (1) Greiner 384-well (Greiner 781101) or Costar 384-well flat-bottomed polystyrene multiwell plates (VWR). • (2) Assay buffer of (a) 100 mM Tris-HCl, pH 7.4, (b) 150 mM KCI, (c) 6 mM MgCl2. Stored at room temperature. • (3) 0.0812% (w/v) malachite green (M 9636, Sigma Aldrich Ltd., Poole, UK). Stored at room temperature. • (4) 2.32% (w/v) polyvinyl alcohol USP (P 1097, Sigma Aldrich Ltd, Poole, UK) in boiling water (see Comment 1), allowed to cool, and stored at room temperature. • (5) 5.72% (w/v) ammonium molybdate in 6 M hydrochloric acid. Stored at room temperature. • (6) 34% (w/v) sodium citrate. Stored at room temperature. • (7) 100 mM ATP, disodium salt, special quality (47699, Sigma Aldrich). Stored at −20° C. • (8) E. coli expressed yeast HSP90 protein, purified >95% (see, e.g., Panaretou et al., 1998) and stored in 50 uL aliquots at −80° C. Method • 1. Dilute test compounds to 500 μM in AR water (DMSO concentration will be 2.5%). Transfer 2.5 μl of these compounds directly from the daughter plate to the assay plate, giving a final assay concentration of 100 μM. To obtain 12 point IC50 values, perform serial dilutions 1:2 to produce a range of assay concentrations from 100 μM to 97.6 nM (2.5% DMSO), and transfer 2.5 μl of each concentration into the assay plate. Column 1 in the assay plate contains no compound, as a negative control. An additional row with no compound is also used as a background. • 2. Prepare ATP by diluting 100 mM stock to 925 μM with assay buffer, and aliquot 5 μl of diluted ATP to each well including controls (final assay concentration 370 μM). • 3. Add 5 μl of buffer to background row. • 4. Dilute enzyme preparation to 1.05 μM with assay buffer, and aliquot 5 μl into each compound well and to the negative control column. • 5. Collect the reagents to the bottom of the well, cover plate with plate seal and incubate overnight at 37 degC. • 6. First thing in the morning prepare the Malachite Green Reagent. Add 2 parts of Malachite Green Solution, 1 part of Polyvinyl Alcohol Solution, 1 part of Ammonium Molybdate Solution, and 2 parts of AR water. • 7. Invert to mix, and leave for approximately 1 hour until the colour turns from brown to golden yellow. • 8. Add 40 μl of Malachite Green Reagent to each well, allow 5 mins for colour to develop. • 9. Add 5 μl of Sodium Citrate Reagent to each well (see comment 2) • 10. Re-cover with plate seal and shake on plate shaker for at least 15 mins. • 11. Measure Absorbance at 620 nm using a suitable plate reader (e.g. Victor, Perkin Elmer Life Sciences, Milton Keynes, UK). […] Comments • (1) The polyvinyl alcohol dissolves in boiling water with difficulty and stirring for 2-3 h is required. • (2) The time interval between addition of the malachite green reagent and the sodium citrate should be kept as short as possible in order to reduce the non-enzymatic hydrolysis of ATP. Once the sodium citrate is added, the colour is stable for up to 4 h at room temperature. • (3) Compounds can be added to the assay plates using a Biomek FX Robot (Beckman Coulter).

T1 sequence (P02829 whole entry, looked up): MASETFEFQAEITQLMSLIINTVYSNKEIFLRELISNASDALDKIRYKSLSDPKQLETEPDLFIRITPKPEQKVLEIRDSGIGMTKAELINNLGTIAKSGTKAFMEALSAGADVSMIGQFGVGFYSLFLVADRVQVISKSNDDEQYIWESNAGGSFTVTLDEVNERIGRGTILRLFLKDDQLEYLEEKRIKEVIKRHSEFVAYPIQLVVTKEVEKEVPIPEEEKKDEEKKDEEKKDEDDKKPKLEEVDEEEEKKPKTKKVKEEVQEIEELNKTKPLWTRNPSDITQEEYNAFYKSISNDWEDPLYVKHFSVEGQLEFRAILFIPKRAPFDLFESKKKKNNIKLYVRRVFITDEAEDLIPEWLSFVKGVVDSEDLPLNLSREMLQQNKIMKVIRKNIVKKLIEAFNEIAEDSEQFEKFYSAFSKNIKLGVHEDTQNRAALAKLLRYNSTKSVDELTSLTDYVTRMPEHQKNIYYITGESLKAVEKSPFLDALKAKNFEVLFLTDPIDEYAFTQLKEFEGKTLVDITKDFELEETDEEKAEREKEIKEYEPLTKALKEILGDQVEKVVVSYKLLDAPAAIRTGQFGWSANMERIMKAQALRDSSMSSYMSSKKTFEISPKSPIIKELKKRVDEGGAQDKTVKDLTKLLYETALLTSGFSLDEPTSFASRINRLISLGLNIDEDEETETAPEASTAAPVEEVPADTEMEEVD

SMILES	pIC50
O=C(c1c[nH]nc1-c1cc(Cl)c(O)cc1O)N1CCOCC1 [Example 5]	< 4.30
O=C(Nc1ccc(O)c(O)c1)c1c[nH]nc1-c1cc(Cl)c(O)cc1O [Example 16]	< 4.30
COc1ccc(CNC(=O)c2c[nH]nc2-c2cc(Cl)c(O)cc2O)cc1 [Example 28]	> 4.30
O=C(Nc1ccc(O)cc1)c1c[nH]nc1-c1cc(Cl)c(O)cc1O [Example 13]	> 4.30
COC(=O)c1ccc(NC(=O)c2c[nH]nc2-c2cc(Cl)c(O)cc2O)cc1 [Example 20]	> 4.30
O=C(NCc1ccc(Cl)cc1)c1c[nH]nc1-c1cc(Cl)c(O)cc1O [Example 30]	> 4.30
NC(=O)c1ccc(NC(=O)c2c[nH]nc2-c2cc(Cl)c(O)cc2O)cc1 [Example 22]	> 4.30
COc1ccc(NC(=O)c2c[nH]nc2-c2cc(Cl)c(O)cc2O)cc1 [Example 17]	> 4.30
CS(=O)(=O)c1ccc(CNC(=O)c2c[nH]nc2-c2cc(Cl)c(O)cc2O)cc1 [Example 33]	> 4.30
COc1cccc(NC(=O)c2c[nH]nc2-c2cc(Cl)c(O)cc2O)c1 [Example 14]	> 4.30
Cc1ccc(CNC(=O)c2c[nH]nc2-c2cc(Cl)c(O)cc2O)cc1 [Example 27]	> 4.30
O=C(Nc1ccccc1)c1c[nH]nc1-c1cc(Cl)c(O)cc1O [Example 2]	< 4.30
O=C(NCCN1CCOCC1)c1c[nH]nc1-c1cc(Cl)c(O)cc1O [Example 11]	< 4.30
O=C(c1c[nH]nc1-c1cc(Cl)c(O)cc1O)N1CCN(c2ccccc2)CC1 [Example 3]	< 4.30
O=C(NCc1ccccc1)c1c[nH]nc1-c1cc(Cl)c(O)cc1O [Example 23]	< 4.30
O=C(O)c1ccc(CNC(=O)c2c[nH]nc2-c2cc(Cl)c(O)cc2O)cc1 [Example 26]	> 4.30

SMILES	pIC50
O=C(Nc1ccc(Cl)cc1)c1c[nH]nc1-c1cc(Cl)c(O)cc1O [Example 18]	< 4.30
O=C(Nc1ccc2c(c1)OCCO2)c1c[nH]nc1-c1cc(Cl)c(O)cc1O [Example 15]	> 4.30
O=C(NCc1ccc(F)cc1)c1c[nH]nc1-c1cc(Cl)c(O)cc1O [Example 29]	> 4.30
O=C(NCc1ccco1)c1c[nH]nc1-c1cc(Cl)c(O)cc1O [Example 9]	> 4.30
COc1ccc(N(C)C(=O)c2c[nH]nc2-c2cc(Cl)c(O)cc2O)cc1 [Example 25]	< 4.30
O=C(O)Cc1ccc(NC(=O)c2c[nH]nc2-c2cc(Cl)c(O)cc2O)cc1 [Example 24]	< 4.30
COc1cccc(CNC(=O)c2c[nH]nc2-c2cc(Cl)c(O)cc2O)c1 [Example 31]	> 4.30
O=C(NCCc1cccs1)c1c[nH]nc1-c1cc(Cl)c(O)cc1O [Example 10]	> 4.30
O=C(NCCCO)c1c[nH]nc1-c1cc(Cl)c(O)cc1O [Example 12]	< 4.30
CN1CCN(C(=O)c2c[nH]nc2-c2cc(Cl)c(O)cc2O)CC1 [Example 6]	< 4.30
C=CCNC(=O)c1c[nH]nc1-c1cc(Cl)c(O)cc1O [Example 4]	< 4.30
O=C(Nc1ccccn1)c1c[nH]nc1-c1cc(Cl)c(O)cc1O [Example 8]	< 4.30
O=C(NCCCN1CCOCC1)c1c[nH]nc1-c1cc(Cl)c(O)cc1O [Example 7]	< 4.30
CC(=O)Nc1ccc(NC(=O)c2c[nH]nc2-c2cc(Cl)c(O)cc2O)cc1 [Example 19]	< 4.30
O=C(NCc1cccc(C(F)(F)F)c1)c1c[nH]nc1-c1cc(Cl)c(O)cc1O [Example 32]	> 4.30

test system: not listed separately; assay: Sulforhodamine B (SRB) growth inhibition / cytotoxicity assay; type: cell-based; details: SRB growth arrest assay; cell line not stated
Method: A growth inhibition assay was also employed for the evaluation of candidate HSP90 inhibitors:
• 1) Determine cell number by haemocytometer. • 2) Using an 8 channel multipipettor, add 160 μl of the cell suspension (3600 cells/well or 2×10^4 cells/ml) to each well of a 96-well microtitre plate. • 3) Incubate overnight at 37° C. in a CO2 incubator. Day 2 • 4) Stock solutions of drugs are prepared, and serial dilutions of each drug are performed in medium to give final concentrations in wells. • 5) Using a multipipettor, 40 μl of drug (at 5× final concentration) is added to quadruplicate wells. • 6) Control wells are at either side of the 96 well plates, where 40 μl of medium is added. • 7) Incubate plates in CO2 incubator for 4 days (48 hours). Day 6 • 8) Tip off medium into sink and immerse plate slowly into 10% ice cold trichloroacetic acid (TCA). […] Leave for 15 mins. • 12) Wash off unbound SRB stain with four washes of 1% acetic acid. • 13) Dry plates in incubator. • 14) Solubilise SRB using 100 μl of 10 mM Tris base and put plates on plate shaker for 5 mins. • 15) Determine absorbance at 540 nm using a plate reader. Calculate mean absorbance for quadruplicate wells and express as a percentage of value for control, untreated wells. • 16) Plot % absorbance values versus log drug concentration and determine the IC50.

SMILES	pIC50
CC(=O)c1ccc(NC(=O)c2c[nH]nc2-c2cc(Cl)c(O)cc2O)cc1 [Example 1, 3-(5-chloro-2,4-dihydroxy-phenyl)-1H-pyrazole-4-carboxylic acid (4-acetyl-phenyl)-amide]	< 4.30
